Literature values in patent publication EP2151446B1, “Process for the preparation of bidentate schiff base ruthenium catalysts containing a salicylaldimine-type ligand” (Rimtec Corporation, priority 2008, dated 2010).

Details: in water

Structure (SMILES) | pKb
O=C([O-])[O-].[Li+].[Li+] [Li2CO3] | about 3.69
O=C([O-])[O-].[K+].[K+] [Entry K2CO3] | about 3.69
O=C([O-])[O-].[Cu+2] [CuCO3] | about 3.69
O=C([O-])[O-].[Na+].[Na+] [Na2CO3] | about 3.69
